The source of these data is US20100204265A1 (priority 2009, published 2010).

Structures are written as SMILES. A value given as a limit tells only on which side of the number the result lay.

This experiment relates to ET (Huh-lucubineo-ET) cell line harboring I389luc-ubi-neo/NS3-3′/ET HCV replicon. The experiment in a line: Replicon assay (HCV replicon, luciferase readout). To be noted: Hepatitis C virus. In kind it is cell-based. An outline of the steps: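 Compounds at 10-point 2-fold dilutions (overall 0.1 nM to […], 0.5% DMSO) were applied to ET cells carrying a luciferase-neo HCV replicon, seeded a day earlier. After 48-72 hours, luciferase-based % inhibition was fitted with a Hill equation for EC50, and parallel WST-1 readings gave TC50.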
By EC50 is commonly meant the concentration that produces a half-maximal response. A lower EC50 goes with greater potency. For `FC(F)(F)c1cc(-c2ccoc2)cn2cc(Cc3nc(COc4ccccc4)no3)nc12` [Compound 231, 6-Furan-3-yl-2-(3-phenoxymethyl-[1,2,4]oxadiazol-5-ylmethyl)-8-trifluoromethyl-imidazo[1,2-a]pyridine], the EC50 is more than 50 µM.

Turning to `CC(C)CS(=O)(=O)NCc1cn2cc(-c3ccoc3)cc(C(F)(F)F)c2n1` [Compound 232, 2-Methyl-propane-1-sulfonic acid (6-furan-3-yl-8-trifluoromethyl-imidazo[1,2-a]pyridin-2-ylmethyl)-amide], the EC50 is more than 50 µM.

`CCOCCOC1CCN(C(=O)c2nc3c(C(F)(F)F)cc(-c4cn[nH]c4)cn3c2Cl)C1` (stereo not shown) [Compound 233, [3-Chloro-6-(1H-pyrazol-4-yl)-8-trifluoromethyl-imidazo[1,2-a]pyridin-2-yl]-[3-(2-ethoxy-ethoxy)-pyrrohdin-1-yl]-methanone] yielded an EC50 of more than 50 µM.

Compound `O=C1c2ccccc2C(=O)N1Cc1cn2cc(-c3ccoc3)cc(C(F)(F)F)c2n1` [Compound 234, 2-(6-Furan-3-yl-8-trifluoromethyl-imidazo[1,2-a]pyridin-2-ylmethyl)-isoindole-1,3-dione] registered an EC50 of more than 50 µM.

Consider `Clc1ccc(Cn2c(CN3CCCC3)nc3ccccc32)cc1` [Compound 235, 1-(4-Chloro-benzyl)-2-pyrrolidin-1-ylmethyl-1H-benzoimidazole], for which the EC50 was determined as 40.2 µM.

Take `N#CCc1cn2cc(-c3ccoc3)cc(C(F)(F)F)c2n1` [Compound 236, (6-Furan-3-yl-8-trifluoromethyl-imidazo[1,2-a]pyridin-2-yl)-acetonitrile]: the EC50 is more than 50 µM.

As to `NC(=O)C1CCCN1C(=O)c1nc2c(C(F)(F)F)cc(-c3ccoc3)cn2c1Cl` (stereo not shown) [Compound 237, 1-(3-Chloro-6-furan-3-yl-8-trifluoromethyl-imidazo[1,2-a]pyridine-2-carbonyl)-pyrrolidine-2-carboxylic acid amide], the EC50 was more than 50 µM.

`CN(C)CC(=O)NCc1cn2cc(-c3ccoc3)cc(C(F)(F)F)c2n1` [Compound 239, 2-Dimethylamino-N-(6-furan-3-yl-8-trifluoromethyl-imidazo[1,2-a]pyridin-2-ylmethyl)-acetamide] gave an EC50 of more than 50 µM.

On to `CC(=O)NCC(=O)NCc1cn2cc(-c3ccoc3)cc(C(F)(F)F)c2n1` [Compound 240, 2-Acetylamino-N-(6-furan-3-yl-8-trifluoromethyl-imidazo[1,2-a]pyridin-2-ylmethyl)-acetamide], for which the EC50 was more than 50 µM.

In turn, `CC(C)CC(N)C(=O)NCc1cn2cc(-c3ccoc3)cc(C(F)(F)F)c2n1` (stereo not shown) [Compound 241, 2-Amino-4-methyl-pentanoic acid (6-furan-3-yl-8-trifluoromethyl-imidazo[1,2-a]pyridin-2-ylmethyl)-amide] had an EC50 of more than 50 µM.

Compound `CC(C)(C)OC(=O)NCCc1cn2cc(-c3ccoc3)cc(C(F)(F)F)c2n1` [Compound 242, [2-(6-Furan-3-yl-8-trifluoromethyl-imidazo[1,2-a]pyridin-2-yl)-ethyl]-carbamic acid tert-butyl ester] yielded an EC50 of more than 50 µM.

The compound `CC(=O)NC(CC(C)C)C(=O)NCc1cn2cc(-c3ccoc3)cc(C(F)(F)F)c2n1` (stereo not shown) [Compound 243, 2-Acetylamino-4-methyl-pentanoic acid (6-furan-3-yl-8-trifluoromethyl-imidazo[1,2-a]pyridin-2-ylmethyl)-amide] came in with an EC50 of more than 50 µM.

`CC(=O)NC(C)C(=O)NCc1cn2cc(-c3ccoc3)cc(C(F)(F)F)c2n1` (stereo not shown) [Compound 244, 2-Acetylamino-N-(6-furan-3-yl-8-trifluoromethyl-imidazo[1,2-a]pyridin-2-ylmethyl)-propionamide] yielded an EC50 of more than 50 µM.

Consider `CC(=O)NC(Cc1c[nH]c2ccccc12)C(=O)NCc1cn2cc(-c3ccoc3)cc(C(F)(F)F)c2n1` (stereo not shown) [Compound 245, 2-Acetylamino-N-(6-furan-3-yl-8-trifluoromethyl-imidazo[1,2-a]pyridin-2-ylmethyl)-3-(1H-indol-3-yl)-propionamide], for which the EC50 is more than 50 µM.

Consider `COC(=O)CNC(=O)c1cn2cc(-c3ccoc3)cc(C(F)(F)F)c2n1` [Compound 246, [(6-Furan-3-yl-8-trifluoromethyl-imidazo[1,2-a]pyridine-2-carbonyl)-amino]-acetic acid methyl ester], for which the EC50 is more than 50 µM.

On to `NC(=O)CNC(=O)c1cn2cc(-c3ccoc3)cc(C(F)(F)F)c2n1` [Compound 247, 6-Furan-3-yl-8-trifluoromethyl-imidazo[1,2-a]pyridine-2-carboxylic acid carbamoylmethyl-amide], for which the concentration for a half-maximal effect (EC50) is more than 50 µM.

In turn, `CNC(=O)CNC(=O)c1cn2cc(-c3ccoc3)cc(C(F)(F)F)c2n1` [Compound 248, 6-Furan-3-yl-8-trifluoromethyl-imidazo[1,2-a]pyridine-2-carboxylic acid methylcarbamoylmethyl-amide] displayed an EC50 of more than 50 µM.

`CN(C)C(=O)CNC(=O)c1cn2cc(-c3ccoc3)cc(C(F)(F)F)c2n1` [Compound 249, 6-Furan-3-yl-8-trifluoromethyl-imidazo[1,2-a]pyridine-2-carboxylic acid dimethylcarbamoylmethyl-amide] yielded an EC50 of more than 50 µM.

For the compound `COC(=O)C(C)NC(=O)c1cn2cc(-c3ccoc3)cc(C(F)(F)F)c2n1` (stereo not shown) [Compound 250, 2-[(6-Furan-3-yl-8-trifluoromethyl-imidazo[1,2-a]pyridine-2-carbonyl)-amino]-propionic acid methyl ester], the EC50 was more than 50 µM.

With `COC(=O)C(CCSC)NC(=O)c1cn2cc(-c3ccoc3)cc(C(F)(F)F)c2n1` (stereo not shown) [Compound 251, 2-[(6-Furan-3-yl-8-trifluoromethyl-imidazo[1,2-a]pyridine-2-carbonyl)-amino]-4-methylsulfanyl-butyric acid methyl ester], the EC50 is more than 50 µM.

`COC(=O)C(CO)NC(=O)c1cn2cc(-c3ccoc3)cc(C(F)(F)F)c2n1` (stereo not shown) [Compound 252, 2-[(6-Furan-3-yl-8-trifluoromethyl-imidazo[1,2-a]pyridine-2-carbonyl)-amino]-3-hydroxy-propionic acid methyl ester] had an EC50 of more than 50 µM.

Consider `COC(=O)C(NC(=O)c1cn2cc(-c3ccoc3)cc(C(F)(F)F)c2n1)C(C)O` (stereo not shown) [Compound 253, 2-[(6-Furan-3-yl-8-trifluoromethyl-imidazo[1,2-a]pyridine-2-carbonyl)-amino]-3-hydroxy-butyric acid methyl ester], for which the EC50 was more than 50 µM.

`COC(=O)C1CCCN1C(=O)c1cn2cc(-c3ccoc3)cc(C(F)(F)F)c2n1` (stereo not shown) [Compound 254, 1-(6-Furan-3-yl-8-trifluoromethyl-imidazo[1,2-a]pyridine-2-carbonyl)-pyrrolidine-2-carboxylic acid methyl ester] returned an EC50 of more than 50 µM.

In turn, `COC(=O)C(NC(=O)c1cn2cc(-c3ccoc3)cc(C(F)(F)F)c2n1)c1ccccc1` (stereo not shown) [Compound 255, [(6-Furan-3-yl-8-trifluoromethyl-imidazo[1,2-a]pyridine-2-carbonyl)-amino]-phenyl-acetic acid methyl ester] registered an EC50 of more than 50 µM.

For the compound `COC(=O)C(NC(=O)c1cn2cc(-c3ccoc3)cc(C(F)(F)F)c2n1)C(C)C` (stereo not shown) [Compound 256, 2-[(6-Furan-3-yl-8-trifluoromethyl-imidazo[1,2-a]pyridine-2-carbonyl)-amino]-3-methyl-butyric acid methyl ester], the EC50 was more than 50 µM.

With `COC(=O)C(CCCCNC(=O)OC(C)(C)C)NC(=O)c1cn2cc(-c3ccoc3)cc(C(F)(F)F)c2n1` (stereo not shown) [Compound 257, 6-tert-Butoxycarbonylamino-2-[(6-furan-3-yl-8-trifluoromethyl-imidazo[1,2-a]pyridine-2-carbonyl)-amino]-hexanoic acid methyl ester], the EC50 was more than 50 µM.

Turning to `NCCc1cn2cc(-c3ccoc3)cc(C(F)(F)F)c2n1` [Compound 258, 2-(6-Furan-3-yl-8-trifluoromethyl-imidazo[1,2-a]pyridin-2-yl)-ethylamine], the EC50 was more than 50 µM.

As for `CC(=O)NC(CO)C(=O)NCc1cn2cc(-c3ccoc3)cc(C(F)(F)F)c2n1` (stereo not shown) [Compound 259, 2-Acetylamino-N-(6-furan-3-yl-8-trifluoromethyl-imidazo[1,2-a]pyridin-2-ylmethyl)-3-hydroxy-propionamide], the EC50 was more than 50 µM.

`CC(=O)NC(Cc1ccccc1)C(=O)NCc1cn2cc(-c3ccoc3)cc(C(F)(F)F)c2n1` (stereo not shown) [Compound 260, 2-Acetylamino-N-(6-furan-3-yl-8-trifluoromethyl-imidazo[1,2-a]pyridin-2-ylmethyl)-3-phenyl-propionamide] showed a concentration for a half-maximal effect (EC50) of more than 50 µM.

With `CC(=O)NC(C(=O)NCc1cn2cc(-c3ccoc3)cc(C(F)(F)F)c2n1)C(C)C` (stereo not shown) [Compound 261, 2-Acetylamino-N-(6-furan-3-yl-8-trifluoromethyl-imidazo[1,2-a]pyridin-2-ylmethyl)-3-methyl-butyramide], the EC50 is more than 50 µM.

Regarding `CC(C(=O)NCc1cn2cc(-c3ccoc3)cc(C(F)(F)F)c2n1)N(C)C` (stereo not shown) [Compound 262, 2-Dimethylamino-N-(6-furan-3-yl-8-trifluoromethyl-imidazo[1,2-a]pyridin-2-ylmethyl)-propionamide], the EC50 is more than 50 µM.

Consider `O=C(NCCc1cn2cc(-c3ccoc3)cc(C(F)(F)F)c2n1)c1cccs1` [Compound 263, Thiophene-2-carboxylic acid [2-(6-furan-3-yl-8-trifluoromethyl-imidazo[1,2-a]pyridin-2-yl)-ethyl]-amide], for which the EC50 was more than 50 µM.

Compound `O=C(O)CNC(=O)c1cn2cc(-c3ccoc3)cc(C(F)(F)F)c2n1` [Compound 264, [(6-Furan-3-yl-8-trifluoromethyl-imidazo[1,2-a]pyridine-2-carbonyl)-amino]-acetic acid] displayed an EC50 of more than 50 µM.

In turn, `CC(NC(=O)c1cn2cc(-c3ccoc3)cc(C(F)(F)F)c2n1)C(=O)O` (stereo not shown) [Compound 265, 2-[(6-Furan-3-yl-8-trifluoromethyl-imidazo[1,2-a]pyridine-2-carbonyl)-amino]-propionic acid] yielded an EC50 of more than 50 µM.
